According to ChEMBL document CHEMBL4828766 (J Med Chem, 2021):
Active and inactive are the calls of the source. No cut-off for these calls is given here. Square brackets hold non-standard residues; d marks the D form. Peptide text beside a SMILES is read from it. Phe(4-I) = N[C@@H](Cc1ccc(I)cc1)C(=O)O; dPhe(4-I) = N[C@H](Cc1ccc(I)cc1)C(=O)O; 2Nal = N[C@@H](Cc1ccc2ccccc2c1)C(=O)O; d2Nal = N[C@H](Cc1ccc2ccccc2c1)C(=O)O

Key:
[1] = target: Melanocyte-stimulating hormone receptor (Mus musculus) (UniProt Q01727); experiment: Agonist activity at mouse MC1R expressed in HEK293 cells assessed as induction of cAMP level at 100 uM incubated for 2 hr by alphaScreen assay relative to NDP-MSH; assay type: functional, cell-based
Melanocortin receptor 3 [2] = target: T1, Melanocortin receptor 3 (Mus musculus, UniProt P33033); experiment: Agonist activity at mouse MC3R expressed in HEK293 cells assessed as induction of cAMP level incubated for 2 hr by alphaScreen assay; assay type: functional, cell-based
Melanocortin receptor 5 = Melanocortin receptor 5 (Mus musculus, UniProt P41149); experiment: Agonist activity at mouse MC5R expressed in HEK293 cells assessed as induction of cAMP level at 100 uM incubated for 2 hr by alphaScreen assay; assay type: functional, cell-based
Melanocortin receptor 4 [3] = target: T2, Melanocortin receptor 4 (Mus musculus, UniProt P56450); experiment: Agonist activity at mouse MC4R expressed in HEK293 cells assessed as induction of cAMP level incubated for 2 hr by alphaScreen assay; assay type: functional, cell-based
[4] = target: Melanocortin receptor 3 (Mus musculus) (UniProt P33033); experiment: (§1) Antagonist activity at mouse melanocortin receptor 3 expressed in HEK293 cells assessed as inhibition of NDP-MSH-induced cAMP accumulation incubated for 2 hrs by cAMP Alpha-screen assay based Schild analysis; assay type: functional, cell-based
[5] = target: Melanocortin receptor 4 (Mus musculus) (UniProt P56450); experiment: Antagonist activity at mouse melanocortin receptor 4 expressed in HEK293 cells assessed as inhibition of NDP-MSH-induced cAMP accumulation incubated for 2 hrs by cAMP Alpha-screen assay based Schild analysis
Target sequence in this assay (P56450 whole entry, looked up): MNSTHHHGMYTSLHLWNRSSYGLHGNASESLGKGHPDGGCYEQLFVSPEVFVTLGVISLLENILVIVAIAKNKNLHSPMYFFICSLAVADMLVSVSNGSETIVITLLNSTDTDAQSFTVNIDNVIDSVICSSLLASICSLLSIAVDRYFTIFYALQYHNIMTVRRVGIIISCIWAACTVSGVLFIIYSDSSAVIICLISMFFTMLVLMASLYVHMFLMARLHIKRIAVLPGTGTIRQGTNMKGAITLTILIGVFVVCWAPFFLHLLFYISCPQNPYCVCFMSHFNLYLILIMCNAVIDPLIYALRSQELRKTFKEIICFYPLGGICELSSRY

Melanocortin receptor 4 [6] = target: T2, Melanocortin receptor 4; experiment: Antagonist activity at mouse melanocortin receptor 4 expressed in HEK293 cells assessed as inhibition of NDP-MSH-induced cAMP accumulation incubated for 2 hrs by cAMP Alpha-screen assay based Schild analysis; assay type: functional, cell-based; settings: for Kb: read-out: pA2 (converted)
[7] = target: Melanocyte-stimulating hormone receptor (Mus musculus) (UniProt Q01727); experiment: Partial agonist activity at mouse MC1R expressed in HEK293 cells assessed as induction of cAMP level at 100 uM incubated for 2 hr by alphaScreen assay relative to control; assay type: functional, cell-based
Melanocortin receptor 3 [8] = target: T1, Melanocortin receptor 3; experiment: as §1; assay type: functional, cell-based; settings: for Kb: read-out: pA2 (converted)
[9] = target: T3, Melanocyte-stimulating hormone receptor (Mus musculus, UniProt Q01727); experiment: Partial agonist activity at mouse MC1R expressed in HEK293 cells assessed as induction of cAMP level incubated for 2 hr by alphaScreen assay; assay type: functional, cell-based
[10] = target: Melanocortin receptor 4 (Mus musculus) (UniProt P56450); experiment: (§2) Agonist activity at mouse MC4R expressed in HEK293 cells assessed as induction of cAMP level at 100 uM incubated for 2 hr by alphaScreen assay relative to control; assay type: functional, cell-based
Target sequence in this assay (P56450 whole entry): as the sequence (P56450 whole entry, looked up) above

[11] = target: Melanocortin receptor 3 (Mus musculus) (UniProt P33033); experiment: Agonist activity at mouse MC3R expressed in HEK293 cells assessed as induction of cAMP level at 100 uM incubated for 2 hr by alphaScreen assay relative to control; assay type: functional, cell-based
[12] = target: Melanocortin receptor 5 (Mus musculus) (UniProt P41149); experiment: Agonist activity at mouse MC5R expressed in HEK293 cells assessed as induction of cAMP level at 100 uM incubated for 2 hr by alphaScreen assay relative to control; assay type: functional, cell-based
Melanocortin receptor 4 [13] = target: T2, Melanocortin receptor 4; experiment: as §2; assay type: functional, cell-based
[14] = target: Melanocortin receptor 3 (Homo sapiens) (UniProt P41968); experiment: Inhibition of [125 I][Nle 4,D -Phe 7]alpha-MSH binding to human MC3R expressed in African green monkey COS-1 cell membrane by gamma-counter method; assay type: cell membranes
[15] = target: Melanocortin receptor 4 (Homo sapiens) (UniProt P32245); experiment: Inhibition of [125 I][Nle 4,D -Phe 7]alpha-MSH binding to human MC4R expressed in African green monkey COS-1 cell membrane by gamma-counter method; assay type: cell membranes
[16] = target: T3, Melanocyte-stimulating hormone receptor; experiment: Agonist activity at mouse MC1R expressed in HEK293 cells assessed as induction of cAMP level at 100 uM incubated for 2 hr by alphaScreen assay; assay type: functional, cell-based

Sequence of Melanocortin receptor 5 (P41149 whole entry): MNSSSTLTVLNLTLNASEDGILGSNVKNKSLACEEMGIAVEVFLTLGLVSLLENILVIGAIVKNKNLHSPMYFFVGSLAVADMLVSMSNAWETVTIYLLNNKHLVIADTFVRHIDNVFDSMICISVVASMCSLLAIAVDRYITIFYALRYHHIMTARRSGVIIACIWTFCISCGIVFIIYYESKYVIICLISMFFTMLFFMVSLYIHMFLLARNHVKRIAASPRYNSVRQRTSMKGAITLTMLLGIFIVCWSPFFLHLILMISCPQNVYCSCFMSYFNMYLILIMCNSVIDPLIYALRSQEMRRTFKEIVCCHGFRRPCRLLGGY
Sequence of Melanocortin receptor 5 (Mus musculus) (P41149 whole entry): as above
T2 sequence (P56450 whole entry): as the sequence (P56450 whole entry, looked up) above
Sequence of Melanocyte-stimulating hormone receptor (Mus musculus) (Q01727 whole entry, looked up): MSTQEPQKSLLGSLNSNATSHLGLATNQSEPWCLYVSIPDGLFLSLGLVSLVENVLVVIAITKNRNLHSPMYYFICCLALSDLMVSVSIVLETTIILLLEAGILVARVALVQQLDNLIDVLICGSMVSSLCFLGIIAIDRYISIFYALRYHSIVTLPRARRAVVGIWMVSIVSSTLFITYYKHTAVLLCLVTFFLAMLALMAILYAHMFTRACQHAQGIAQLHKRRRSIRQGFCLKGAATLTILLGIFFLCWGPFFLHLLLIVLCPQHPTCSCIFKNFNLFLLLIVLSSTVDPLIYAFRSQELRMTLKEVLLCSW
T3 sequence (Q01727 whole entry): as the sequence (Q01727 whole entry, looked up) above
Sequence of Melanocortin receptor 3 (Mus musculus) (P33033 whole entry): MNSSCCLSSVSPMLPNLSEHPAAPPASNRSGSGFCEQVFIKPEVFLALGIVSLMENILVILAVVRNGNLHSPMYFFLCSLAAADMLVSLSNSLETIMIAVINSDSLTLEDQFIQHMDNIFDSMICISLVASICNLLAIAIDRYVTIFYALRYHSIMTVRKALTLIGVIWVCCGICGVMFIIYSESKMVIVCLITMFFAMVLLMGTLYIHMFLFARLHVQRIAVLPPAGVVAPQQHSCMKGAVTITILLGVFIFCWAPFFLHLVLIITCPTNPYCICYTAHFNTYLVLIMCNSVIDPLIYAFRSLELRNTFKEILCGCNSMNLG
T1 sequence (P33033 whole entry): as above
Sequence of Melanocortin receptor 3 (Homo sapiens) (P41968 whole entry): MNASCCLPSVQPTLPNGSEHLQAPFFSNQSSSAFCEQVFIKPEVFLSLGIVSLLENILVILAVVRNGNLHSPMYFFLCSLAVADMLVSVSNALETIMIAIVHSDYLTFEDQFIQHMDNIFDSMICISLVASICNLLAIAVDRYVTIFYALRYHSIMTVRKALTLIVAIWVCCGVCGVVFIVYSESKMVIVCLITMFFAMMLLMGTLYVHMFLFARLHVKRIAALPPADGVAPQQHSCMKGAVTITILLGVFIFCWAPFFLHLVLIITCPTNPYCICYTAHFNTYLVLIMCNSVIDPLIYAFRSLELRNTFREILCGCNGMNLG
Sequence of Melanocortin receptor 4 (Homo sapiens) (P32245 whole entry): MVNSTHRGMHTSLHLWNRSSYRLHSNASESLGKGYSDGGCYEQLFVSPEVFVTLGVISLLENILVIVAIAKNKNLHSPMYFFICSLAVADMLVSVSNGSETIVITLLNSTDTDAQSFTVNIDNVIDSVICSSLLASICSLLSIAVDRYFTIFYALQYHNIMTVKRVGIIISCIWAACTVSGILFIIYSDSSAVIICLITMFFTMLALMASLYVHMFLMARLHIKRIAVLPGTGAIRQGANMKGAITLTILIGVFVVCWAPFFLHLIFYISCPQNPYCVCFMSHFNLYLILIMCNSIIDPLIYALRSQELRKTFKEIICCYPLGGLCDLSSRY

Row | Structure (SMILES) | Activity ([1]; filed as agonist) | EC50 (Melanocortin receptor 3 [2]) | EC50 (Melanocortin receptor 5) | EC50 (Melanocortin receptor 4 [3]) | Kb (Melanocortin receptor 4 [6]) | Kb (Melanocortin receptor 3 [8]) | Activity [10] | Activity [11] | also measured
1 | CC(=O)N[C@@H](Cc1ccc(I)cc1)C(=O)N[C@@H](Cc1ccc2ccccc2c1)C(=O)N[C@@H](Cc1ccc(I)cc1)C(=O)N[C@@H](CCCNC(=N)N)C(N)=O (Ac-[Phe(4-I)][2Nal][Phe(4-I)]R-NH2) | 60% | > 100000 nM | > 100000 nM | > 100000 nM | – | – | – | – | pA2 [4]: inactive; pA2 [5]: inactive
2 | CC(=O)N[C@H](Cc1ccc2ccccc2c1)C(=O)N[C@@H](CCCNC(=N)N)C(=O)N[C@H](Cc1ccc2ccccc2c1)C(=O)N[C@@H](CCCNC(=N)N)C(N)=O (Ac-[d2Nal]R[d2Nal]R-NH2) | – | > 100000 nM | > 100000 nM | > 100000 nM | 5.01 nM | 794 nM | – | – | Activity ([7]; filed as partial agonist): 60%; EC50 [9]: 1000 nM
3 | CC(=O)N[C@H](Cc1ccc2ccccc2c1)C(=O)N[C@H](Cc1ccc2ccccc2c1)C(=O)N[C@H](Cc1ccc2ccccc2c1)C(=O)N[C@@H](CCCNC(=N)N)C(N)=O | – | – | – | – | > 3160 nM | > 3160 nM | 25% | 35% | Activity [1]: 30%
4 | CC(=O)N[C@H](Cc1ccc2ccccc2c1)C(=O)N[C@@H](CCCNC(=N)N)C(=O)N[C@@H](Cc1ccc2ccccc2c1)C(=O)N[C@H](CCCCN)C(N)=O (Ac-[d2Nal]R[2Nal][dK]-NH2) | – | > 100000 nM | > 100000 nM | > 100000 nM | 15.8 nM | 631 nM | – | – | Activity ([7]; filed as partial agonist): 50%; EC50 [9]: 3300 nM
5 | CC(=O)N[C@H](Cc1ccc(I)cc1)C(=O)N[C@@H](CCCNC(=N)N)C(=O)N[C@H](Cc1ccc2ccccc2c1)C(=O)N[C@H](Cc1ccc2ccccc2c1)C(N)=O (Ac-[dPhe(4-I)]R[d2Nal][d2Nal]-NH2) | 80% | – | – | – | 200 nM | 794 nM | – | – | Activity ([10]; filed as agonist): 45%; Ki (Melanocortin receptor 4 [6]): 200 nM; Activity [12]: 20%; Ki (Melanocortin receptor 3 [8]): 790 nM; Activity ([11]; filed as agonist): 45%
6 | CC(=O)N[C@H](Cc1ccc2ccccc2c1)C(=O)N[C@@H](CCCNC(=N)N)C(=O)N[C@H](Cc1ccc2ccccc2c1)C(=O)N[C@H](Cc1ccc2ccccc2c1)C(N)=O (Ac-[d2Nal]R[d2Nal][d2Nal]-NH2) | – | – | – | – | 501 nM | 2000 nM | – | – | Activity ([10]; filed as agonist): 45%; Activity [12]: 20%; Activity ([7]; filed as partial agonist): 85%; Activity ([11]; filed as agonist): 50%; EC50 [9]: 5000 nM
7 | CC(=O)N[C@H](Cc1ccc2ccccc2c1)C(=O)N[C@H](Cc1ccc2ccccc2c1)C(=O)N[C@@H](Cc1c[nH]c2ccccc12)C(=O)N[C@@H](CCCNC(=N)N)C(N)=O (Ac-[d2Nal][d2Nal]WR-NH2) | 45% | – | – | – | > 3160 nM | > 3160 nM | – | 35% | Activity ([10]; filed as agonist): 60%; Activity ([12]; filed as agonist): 45%
8 | CC(=O)N[C@H](Cc1ccc(I)cc1)C(=O)N[C@@H](CCCNC(=N)N)C(=O)N[C@H](Cc1ccc2ccccc2c1)C(=O)N[C@H](CCCCN)C(N)=O (Ac-[dPhe(4-I)]R[d2Nal][dK]-NH2) | – | – | – | – | – | – | – | – | Activity [7]: 30%
9 | CC(=O)N[C@H](Cc1ccc2ccccc2c1)C(=O)N[C@H](Cc1ccc2ccccc2c1)C(=O)N[C@@H](Cc1ccc2ccccc2c1)C(=O)N[C@@H](CCCNC(=N)N)C(N)=O | 55% | > 100000 nM | – | > 100000 nM | > 3160 nM | > 3160 nM | – | – | Activity ([12]; filed as agonist): 40%
10 | CC(=O)N[C@H](Cc1ccc2ccccc2c1)C(=O)N[C@@H](CCCNC(=N)N)C(=O)N[C@@H](Cc1ccc2ccccc2c1)C(=O)N[C@H](Cc1ccc2ccccc2c1)C(N)=O (Ac-[d2Nal]R[2Nal][d2Nal]-NH2) | – | – | – | – | 200 nM | > 3160 nM | 30% | 30% | Activity [12]: 25%
11 | CC(=O)N[C@H](Cc1ccc(I)cc1)C(=O)N[C@@H](CCCNC(=N)N)C(=O)N[C@@H](Cc1c[nH]c2ccccc12)C(=O)N[C@H](Cc1ccc2ccccc2c1)C(N)=O (Ac-[dPhe(4-I)]RW[d2Nal]-NH2) | 45% | – | > 100000 nM | – | 25.1 nM | 1000 nM | 35% | 25% | Ki (Melanocortin receptor 4 [6]): 25 nM; Ki (Melanocortin receptor 3 [8]): 1000 nM
12 | CC(=O)N[C@H](Cc1ccc(I)cc1)C(=O)N[C@@H](CCCNC(=N)N)C(=O)N[C@@H](Cc1c[nH]c2ccccc12)C(=O)N[C@@H](CCCNC(=N)N)C(N)=O (Ac-[dPhe(4-I)]RWR-NH2) | – | – | > 100000 nM | > 100000 nM | 2 nM | 39.8 nM | – | 25% | Ki (Melanocortin receptor 4 [6]): 2 nM; Activity ([7]; filed as partial agonist): 50%; Ki (Melanocortin receptor 3 [8]): 40 nM; EC50 [9]: 7900 nM
13 | CC(=O)N[C@H](Cc1ccc(I)cc1)C(=O)N[C@H](Cc1ccc2ccccc2c1)C(=O)N[C@@H](Cc1ccc2ccccc2c1)C(=O)N[C@H](CCCCN)C(N)=O (Ac-[dPhe(4-I)][d2Nal][2Nal][dK]-NH2) | 40% | – | – | > 100000 nM | > 3160 nM | > 3160 nM | – | 20% | EC50 (Melanocortin receptor 4 [13]): > 100000 nM; Activity ([12]; filed as agonist): 50%
14 | CC(=O)N[C@H](Cc1ccc2ccccc2c1)C(=O)N[C@@H](CCCNC(=N)N)C(=O)N[C@@H](Cc1c[nH]c2ccccc12)C(=O)N[C@H](Cc1ccc2ccccc2c1)C(N)=O (Ac-[d2Nal]RW[d2Nal]-NH2) | – | – | > 100000 nM | – | 100 nM | 2000 nM | 30% | – | Activity ([11]; filed as agonist): 40%
15 | CC(=O)N[C@@H](Cc1ccc2ccccc2c1)C(=O)N[C@@H](CCCNC(=N)N)C(=O)N[C@@H](Cc1ccc2ccccc2c1)C(N)=O | – | – | – | – | – | – | – | – | Activity [14]: 1120 nM; Activity [15]: 11.6 nM
16 | CC(=O)N[C@H](Cc1ccc2ccccc2c1)C(=O)N[C@@H](CCCNC(=N)N)C(=O)N[C@H](Cc1ccc2ccccc2c1)C(=O)N[C@H](CCCCN)C(N)=O (Ac-[d2Nal]R[d2Nal][dK]-NH2) | – | > 100000 nM | > 100000 nM | > 100000 nM | 6.31 nM | 1000 nM | – | – | Activity [7]: 30%; EC50 [9]: 6000 nM
17 | CC(=O)N[C@H](Cc1ccc(I)cc1)C(=O)N[C@@H](CCCNC(=N)N)C(=O)N[C@H](Cc1ccc(I)cc1)C(=O)N[C@H](Cc1ccc2ccccc2c1)C(N)=O (Ac-[dPhe(4-I)]R[dPhe(4-I)][d2Nal]-NH2) | – | – | – | – | 251 nM | 501 nM | – | – | Activity ([10]; filed as agonist): 40%; Ki (Melanocortin receptor 4 [6]): 250 nM; Activity ([12]; filed as agonist): 65%; EC50 [16]: 1100 nM; Ki (Melanocortin receptor 3 [8]): 500 nM; Activity ([11]; filed as agonist): 40%
18 | CC(=O)N[C@H](Cc1ccc2ccccc2c1)C(=O)N[C@@H](CCCNC(=N)N)C(=O)N[C@@H](Cc1ccc2ccccc2c1)C(=O)N[C@@H](CCCNC(=N)N)C(N)=O (Ac-[d2Nal]R[2Nal]R-NH2) | – | > 100000 nM | > 100000 nM | – | 1.58 nM | 100 nM | 30% | – | EC50 [16]: > 100000 nM
19 | CC(=O)N[C@H](Cc1ccc2ccccc2c1)C(=O)N[C@@H](CCCNC(=N)N)C(=O)N[C@H](Cc1ccc(I)cc1)C(=O)N[C@H](Cc1ccc2ccccc2c1)C(N)=O (Ac-[d2Nal]R[dPhe(4-I)][d2Nal]-NH2) | – | – | – | – | – | – | 30% | – | Activity ([12]; filed as agonist): 40%
